This is an account of results in patent US6451340B1, “Nucleotide analog compositions” (Gilead Sciences, Inc., priority 1997, dated 2002).

Like-named read-outs stand apart in the source and are kept apart here.

Data set [1] can be described thus: AD solubility in crystallization solvents. Conditions: for solubility: organic solvent or mixture. Format: physicochemical. The protocol:
Crystalline AD is prepared by allowing crystal formation in an AD composition, usually from a solution of AD in a crystallization mixture containing at least about 6%, typically at least about 30%, usually at least about 35%, of AD. One would ordinarily conduct crystallizations by preparing an AD solution comprising about 6-45% AD and about 55-94% crystallization solvent. […] AD is not freely soluble in some crystallization solvents, e.g., AD solubility in di-n-butyl ether is less than about 0.3 mg/mL, and adding these solvents to an AD solution increases the degree of saturation or supersaturation of the solution. One usually uses organic solutions containing an amount of AD that is near the upper solubility limit in the crystallization solvent(s). The lower amount, about 6%, is the minimum amount of AD needed in a solution to consistently yield crystals. Certain solvents, e.g., methanol or CH2Cl2, can contain more than about 50% AD.
One usually prepares Form 3 crystals by allowing crystals to grow in an anhydrous methanol solution of AD. One obtains AD in methanol by mixing sufficient noncrystalline or crystalline AD in methanol for about 10-15 minutes at room temperature or as needed to dissolve the solid AD to obtain a solution having at least about 100-150 mg AD/mL methanol. AD solubility in methanol at room temperature is greater than 600 mg/mL. Crystallization then proceeds for about 4 to about 48 hours at a temperature of about −5° to about 25°, usually at about 0-23°.
Recrystallization generally begins shortly after completion of adding and mixing the di-n-butyl ether and one then allows recrystallization to proceed for about 4-36 hours, usually about 6-24 hours. Additional yield of crystals from recrystallization at room temperature for about 4-36 hours is usually obtained by cooling the recrystallization mixture to about 4-10° and allowing the mixture to stand about 1-6 hours at the reduced temperature. Usually, the amount of AD one uses in a recrystallization will be sufficient to form a saturated or nearly saturated solution, i.e., about 0.4 g/mL using acetone. Dissolution of AD in acetone is complete in about 2-8 minutes using moderate agitation. Material remaining undissolved after this initial mixing period is removed and discarded, followed by adding the second less polar solvent of the solvent pair to the mixture containing the first crystallization solvent.
One conducts a Form 3 recrystallization in methanol in the same manner as described herein for preparation of Form 3 crystals. A saturated or nearly saturated methanol solution is used to prepare the crystals, i.e., at least about 0.6 g/mL AD.

Data set [2] can be described thus: L-carnitine levels in patients taking AD. The data set is classed as in vivo. The source says: Formulations containing crystalline AD and an excipient(s) may also contain L-carnitine or salts of L-carnitine, e.g., L-carnitine-L-tartrate (2:1). […] Tablets containing L-carnitine-L-tartrate and AD may decrease the effect of pivalic acid on L-carnitine depletion in patients taking AD. The amount of L-carnitine to be included will be apparent to the clinician in view of the extent of depletion in patients.

Consider `CC(C)(C)C(=O)OCOP(=O)(COCCn1cnc2c(N)ncnc21)OCOC(=O)C(C)(C)C` [AD, 9-[2-[[bis[(pivaloyloxy)methoxy]phosphinyl]methoxy]ethyl]adenine], for which the “saturated or nearly saturated solution of AD” value is reported as “about 0.4 g/mL” in data set [1] (acetone) and “at least 0.6 g/mL” in data set [1] (methanol). Further, the solubility in data set [1] (di-n-butyl ether, read-out: AD solubility in di-n-butyl ether) was less than 0.3 mg/mL; in data set [1] (methanol, room temperature, read-out: AD solubility in methanol), more than 600 mg/mL. Besides, the “amount of AD the solvent can contain” value in data set [1] (methanol or CH2Cl2, % w/w) is given as “more than 50%”. Besides, in data set [1] (most crystallization solvents, room temperature, % w/w), the “upper limit of solubility of AD” value is 10-41%. Also, in data set [2], the “effect on L-carnitine levels (release of pivalic acid in vivo)” value is recorded as “appears to lower the levels of L-carnitine”.

By solubility is commonly meant the dissolved amount per volume that the medium holds.
